Test results: US10668048B2, “Compounds for inhibiting bacterial growth via phosphatidylglycerol binding” (Wichita State University, priority 2016, dated 2020)
Values after ≈ are worked out from the molar mass of the structure shown.

Assays:
[1] = Liptin-PG binding in solution (ITC and/or 1H NMR titration); settings: for binding constant for PG (Ka): in DMF solution, prior research
Method: The lipid binding ability of liptins 1-3 (FIG. 2A) have been investigated in solution using isothermal titration calorimetry (ITC) and/or ^1H NMR. Stoichiometry of binding was accomplished with Job plots using ^1H NMR. […] The use of organic solvents allowed the determination of binding motif using ^1H NMR.
Liptins 1b, 1e, 2c, 2d, 3a, 3c in DMF/5% CHCl3; 3e in 50% DMSO, 45% CHCl3, 5% CH3OH.
Liptins 1h and 1i 40% DMSO, 60% CHCl3, 3f in 20% DMSO, 80% CHCl3.

MRSA [2] = test: MIC in cation-adjusted Muller Hinton culture; format: cell-based, Methicillin-resistant S. aureus; settings: no growth after 24 hours
Method: (§1) MICs were determined in cation-adjusted Muller Hinton culture. Standard CLSI protocol for serial dilutions of liptin concentrations were used to determine the MIC, starting at 0.01 OD. Two different experimental cultures were used and each data point measured in triplicate.

Acinetobacter baumannii [3] = test: MIC in cation-adjusted Muller Hinton culture; format: cell-based; settings: no growth after 24 hours
Method: as §1

Escherichia coli [4] = test: MIC in cation-adjusted Muller Hinton culture; format: cell-based; settings: no growth after 24 hours
Method: as §1

Klebsiella pneumoniae [5] = test: MIC in cation-adjusted Muller Hinton culture; format: cell-based; settings: no growth after 24 hours
Method: as §1

Mycobacterium smegmatis [6] = test: MIC in cation-adjusted Muller Hinton culture; format: cell-based; settings: no growth after 24 hours
Method: as §1

Pseudomonas aeruginosa = test: MIC in cation-adjusted Muller Hinton culture; format: cell-based; settings: no growth after 24 hours
Method: as §1

Staphylococcus aureus [7] = test: MIC in cation-adjusted Muller Hinton culture; format: cell-based; settings: no growth after 24 hours
Method: as §1

MRSA [8] = test: MBC in cation-adjusted Muller Hinton culture; format: cell-based, Methicillin-resistant S. aureus
Method: (§2) Minimum bactericidal concentration (MBC) were determined in cation-adjusted Muller Hinton culture. Standard CLSI protocol for serial dilutions of liptin concentrations were used to determine the MBC, starting at 0.01 OD. Two different experimental cultures were used and each data point measured in triplicate.

Acinetobacter baumannii [9] = test: MBC in cation-adjusted Muller Hinton culture; format: cell-based
Method: as §2

Escherichia coli [10] = test: MBC in cation-adjusted Muller Hinton culture; format: cell-based
Method: as §2

Klebsiella pneumoniae [11] = test: MBC in cation-adjusted Muller Hinton culture; format: cell-based
Method: as §2

Mycobacterium smegmatis [12] = test: MBC in cation-adjusted Muller Hinton culture; format: cell-based
Method: as §2

Staphylococcus aureus [13] = test: MBC in cation-adjusted Muller Hinton culture; format: cell-based
Method: as §2

MRSA [14] = test: Live-Dead stain (BacLight SYTO 9 / propidium iodide); format: cell-based, Methicillin-resistant S. aureus; settings: 90 minutes
Method: (§3) Molecular Probes BacLight© kits containing the SYTO 9 green-fluorescent dye and propidium iodide red-fluorescent dye were used to detect live or dead bacteria after ninety minute exposure of bacteria to liptins 1h or 1k. Bacteria in Muller Hinton culture were grown to an OD=0.3, were inoculated with liptins 1h and 1k and after ninety minutes stained with a mixture of the above dyes and affixed to a slide to be examined under a light microscope (40×) to determine the number of live and dead cells (green colored cells considered alive and red-colored cells considered dead). Data was calculated based upon an average of 5 different plate counts from each slide, and is based on a percent of total bacteria counted (live and dead). Control sample contains no liptin.

Acinetobacter baumannii [15] = test: as above; format: cell-based; settings: 5 μM, 90 minutes
Method: as §3

Escherichia coli [16] = test: as above; format: cell-based; settings: 10 μM, 90 minutes
Method: as §3

Klebsiella pneumoniae [17] = test: as above; format: cell-based; settings: 90 minutes
Method: as §3

Mycobacterium smegmatis [18] = test: as above; format: cell-based; settings: 5 μM, 90 minutes
Method: as §3

Staphylococcus aureus [19] = test: as above; format: cell-based; settings: 5 μM, 90 minutes
Method: as §3

E. coli = test: BacLight Bacterial Membrane Potential kit, plasma membrane depolarization; format: cell-based; settings: one half the liptins' MICs; concentration dependent
Method: (§4) The Molecular Probes BacLight® Bacterial Membrane Potential kit was used to detect changes in the polarization of the bacterial plasma membrane upon inoculation of bacteria with varying concentrations of liptins 1h or 1k. […] CCCP (carbonyl cyanide 3-chlorophenylhydrazone) is a proton ionophore that destroys plasma membrane potential and as such is a positive control. […] With plasma membrane depolarization the bacterial cell loses its ability to synthesize ATP and proteins. Additionally loss of membrane potential stops the ability for cell replication due to an inability for proper placement of divisome proteins in the plasma membrane. […] Thus, it is possible that the liptin's mechanism of action is a result of their deleterious effect on the functioning of electron transport proteins found in the plasma membrane.

S. aureus = test: as above; format: cell-based; settings: one half the liptins' MICs; concentration dependent
Method: as §4

[20] = test system: A549 (lung carcinoma epithelial) cells; test: LDH release cytotoxicity assay; format: cell-based; settings: near 15 μM
Method: (§5) Toxicity Studies of human HeLa (vaginal carcinoma) and A549 (lung carcinoma epithelial) cells with Liptins 1h and 1k.
(§6) Eukaryote cell toxicity was determined using a Pierce LDH assay kit including the Chemical Compound-Mediated Cytotoxicity assay. This kit measures cell death by measuring the amount of lactate dehydrogenase released from cells. Lactate dehydrogenase (LDH) is a cytosolic enzyme present in many different types of cells. When the plasma membrane is damaged, LDH is released into cell culture media. The released LDH can be quantified by a coupled enzymatic reaction. First, LDH catalyzes the conversion of lactate to pyruvate via reduction of NAD+ to NADH. Second, diaphorase uses NADH to reduce a tetrazolium salt (INT) to a red formazan product. Therefore, the level of formazan formation is directly proportional to the amount of released LDH in the medium.

[21] = test system: human HeLa (vaginal carcinoma) cells; test: LDH release cytotoxicity assay; format: cell-based; settings: up to about 15 μM
Method: as §5, §6

[22] = test system: Gram-positive and Gram-negative bacteria; test: Growth curves in BHI culture with liptins 1h-k; format: cell-based; settings: one inoculation
Method: Growth curves in BHI culture were generated (not shown) from liquid shake-flask cultures using absorbance measurements at 600 nm at different concentrations of liptins 1h-k. Uninoculated control flasks were used as blanks. Absorbance values of 0.1 OD unit was considered reasonable threshold for positive growth. The use of the nutrient-rich BHI culture allowed us to measure the effects of the small structural differences in liptins 1h-k on bacterial growth rates over long periods of time. […] Liptin exposure appears to stop bacterial growth, as evidenced by long lag phases, which increase with liptin concentration, and growth rates and maximum cell densities are decreased with liptin treatment.

[23] = ITC or NMR titrations, 40% DMSO, 60% CHCl3
[24] = NMR titrations, DMF/5% CHCl3, 1:1 binding stoichiometry
[25] = ITC, DMF/5% CHCl3, 1:1 binding stoichiometry

O=C(NCc1cc(CCCO)cc2c1OCCCOc1c(cc(CCCO)cc1CNC(=O)Nc1ccccc1)CCC2)Nc1ccccc1 [Liptin 2b]
binding constant for PG (Ka) [1]: no significant binding

CCCCCCNC(=O)CCc1ccc2c(c1)CNCCCNCc1cc(CCC(=O)NCCCCCC)ccc1OCCCCO2 [Liptin 1i]
Ka [1, 23]: 1500 M⁻¹ | MIC (MRSA [2]): 3.5 µM (≈ 2.28 µg/mL) | MIC (Acinetobacter baumannii [3]): 3.5 µM (≈ 2.28 µg/mL) | MIC (Escherichia coli [4]): 3 µM (≈ 1.95 µg/mL) | MIC (Klebsiella pneumoniae [5]): 4 µM (≈ 2.6 µg/mL) | MIC (Mycobacterium smegmatis [6]): 3 µM (≈ 1.95 µg/mL) | MIC (Pseudomonas aeruginosa): 12 µM (≈ 7.81 µg/mL) | MIC (Staphylococcus aureus [7]): 3 µM (≈ 1.95 µg/mL) | MBC (MRSA [8]): 11.5 µM (≈ 7.49 µg/mL) | MBC (Acinetobacter baumannii [9]): 11.5 µM (≈ 7.49 µg/mL) | MBC (Escherichia coli [10]): 14 µM (≈ 9.11 µg/mL) | MBC (Klebsiella pneumoniae [11]): 12 µM (≈ 7.81 µg/mL) | MBC (Mycobacterium smegmatis [12]): 10.5 µM (≈ 6.83 µg/mL) | MBC (Staphylococcus aureus [13]): 10.5 µM (≈ 6.83 µg/mL)

CCCCCCNC(=O)CCc1ccc2c(c1)CNCCCNCc1cc(CCC(=O)NCCCCCC)ccc1OCCCCCO2 [Liptin 1h]
Ka [1, 23]: 4600 M⁻¹ | MIC (MRSA [2]): 3 µM (≈ 1.99 µg/mL) | MIC (Acinetobacter baumannii [3]): 2.5 µM (≈ 1.66 µg/mL) | MIC (Escherichia coli [4]): 2 µM (≈ 1.33 µg/mL) | MIC (Klebsiella pneumoniae [5]): 3 µM (≈ 1.99 µg/mL) | MIC (Mycobacterium smegmatis [6]): 2.5 µM (≈ 1.66 µg/mL) | MIC (Pseudomonas aeruginosa): 9 µM (≈ 5.98 µg/mL) | MIC (Staphylococcus aureus [7]): 2.5 µM (≈ 1.66 µg/mL) | MBC (MRSA [8]): 10 µM (≈ 6.65 µg/mL) | MBC (Acinetobacter baumannii [9]): 8.5 µM (≈ 5.65 µg/mL) | MBC (Escherichia coli [10]): 9 µM (≈ 5.98 µg/mL) | MBC (Klebsiella pneumoniae [11]): 8.5 µM (≈ 5.65 µg/mL) | MBC (Mycobacterium smegmatis [12]): 11.5 µM (≈ 7.65 µg/mL) | MBC (Staphylococcus aureus [13]): 11 µM (≈ 7.31 µg/mL) | Dead (MRSA [14]; 5 μM): 72% | Live (MRSA [14]; 5 μM): 28% | Dead (MRSA [14]; 10 μM): 84% | Live (MRSA [14]; 10 μM): 15% | Dead (Acinetobacter baumannii [15]): 88% | Live (Acinetobacter baumannii [15]): 12% | Dead (Escherichia coli [16]): 75% | Live (Escherichia coli [16]): 35% | Dead (Klebsiella pneumoniae [17]; 5 μM): 67% | Live (Klebsiella pneumoniae [17]; 5 μM): 33% | Dead (Klebsiella pneumoniae [17]; 10 μM): 100% | Live (Klebsiella pneumoniae [17]; 10 μM): 0% | Dead (Mycobacterium smegmatis [18]): 93% | Live (Mycobacterium smegmatis [18]): 7% | Dead (Staphylococcus aureus [19]): 39% | Live (Staphylococcus aureus [19]): 61% | plasma membrane depolarization (red/green fluorescence ratio) (E. coli): large membrane depolarization | plasma membrane depolarization (red/green fluorescence ratio) (S. aureus): large membrane depolarization | cytotoxicity (LDH release) [20]: over 25% | cell toxicity (LDH release) [21]: large toxicity | antibacterial activity from growth curves [22]: most potent

Cc1ccc2c(c1)CNCCCNCc1cc(C)ccc1OCCCCCO2 [Liptin 1b]
Ka [1, 24]: 200 M⁻¹

CCCCCCNC(=O)CCc1ccc2c(c1)CNCCCCNCc1cc(CCC(=O)NCCCCCC)ccc1OCCCCO2 [Liptin 1j]
MIC (MRSA [2]): 4.5 µM (≈ 2.99 µg/mL) | MIC (Acinetobacter baumannii [3]): 4 µM (≈ 2.66 µg/mL) | MIC (Escherichia coli [4]): 3.5 µM (≈ 2.33 µg/mL) | MIC (Klebsiella pneumoniae [5]): 3.5 µM (≈ 2.33 µg/mL) | MIC (Mycobacterium smegmatis [6]): 3.5 µM (≈ 2.33 µg/mL) | MIC (Pseudomonas aeruginosa): 14 µM (≈ 9.31 µg/mL) | MIC (Staphylococcus aureus [7]): 4 µM (≈ 2.66 µg/mL) | MBC (MRSA [8]): 15 µM (≈ 9.97 µg/mL) | MBC (Acinetobacter baumannii [9]): 12.5 µM (≈ 8.31 µg/mL) | MBC (Escherichia coli [10]): 15 µM (≈ 9.97 µg/mL) | MBC (Klebsiella pneumoniae [11]): 13 µM (≈ 8.64 µg/mL) | MBC (Mycobacterium smegmatis [12]): 12 µM (≈ 7.98 µg/mL) | MBC (Staphylococcus aureus [13]): 15.5 µM (≈ 10.3 µg/mL)

O=C(NCc1cc(CCCO)cc2c1OCCCCOc1c(cc(CCCO)cc1CNC(=O)Nc1ccccc1)CCC2)Nc1ccccc1 [Liptin 2a]
binding constant for PG (Ka) [1]: no significant binding

O=C(CNCc1ccccc1)Nc1ccccc1-c1c2nc(c(-c3ccccc3NC(=O)CNCc3ccccc3)c3ccc([nH]3)c(-c3ccccc3NC(=O)CNCc3ccccc3)c3nc(c(-c4ccccc4NC(=O)CNCc4ccccc4)c4ccc1[nH]4)C=C3)C=C2 [Liptin 3f]
Ka ([1]; NMR titrations, 20% DMSO, 80% CHCl3): 2800 M⁻¹

CCOCCOCCOCCNC(=O)Nc1ccccc1-c1c2nc(c(-c3ccccc3NC(=O)NCCOCCOCCOCC)c3ccc([nH]3)c(-c3ccccc3NC(=O)NCCOCCOCCOCC)c3nc(c(-c4ccccc4NC(=O)NCCOCCOCCOCC)c4ccc1[nH]4)C=C3)C=C2 [Liptin 3c]
Ka [1, 25]: 3700 M⁻¹

Cc1ccc2c(c1)CNCCCCNCc1cc(C)ccc1OCCCCO2 [Liptin 1e]
Ka [1, 24]: 250 M⁻¹

O=C(NCCOCc1ccccc1)Nc1ccccc1-c1c2nc(c(-c3ccccc3NC(=O)NCCOCc3ccccc3)c3ccc([nH]3)c(-c3ccccc3NC(=O)NCCOCc3ccccc3)c3nc(c(-c4ccccc4NC(=O)NCCOCc4ccccc4)c4ccc1[nH]4)C=C3)C=C2 [Liptin 3a]
Ka [1, 25]: 2100 M⁻¹
